What was measured:
[1] = target: D-amino-acid oxidase (Sus scrofa, UniProt P00371); assay: Inhibition of porcine kidney DAAO using D-serine as substrate by Amplex red and horseradish peroxidase fluorescence assay
[2] = target: T1, Amine oxidase [flavin-containing] B (Homo sapiens, UniProt P27338); assay: Competitive inhibition of human recombinant MAO-B assessed as inhibitory constant using varying levels of kynuramine as substrate by Lineweaver-burk plot analysis
T1 sequence (P27338 whole entry): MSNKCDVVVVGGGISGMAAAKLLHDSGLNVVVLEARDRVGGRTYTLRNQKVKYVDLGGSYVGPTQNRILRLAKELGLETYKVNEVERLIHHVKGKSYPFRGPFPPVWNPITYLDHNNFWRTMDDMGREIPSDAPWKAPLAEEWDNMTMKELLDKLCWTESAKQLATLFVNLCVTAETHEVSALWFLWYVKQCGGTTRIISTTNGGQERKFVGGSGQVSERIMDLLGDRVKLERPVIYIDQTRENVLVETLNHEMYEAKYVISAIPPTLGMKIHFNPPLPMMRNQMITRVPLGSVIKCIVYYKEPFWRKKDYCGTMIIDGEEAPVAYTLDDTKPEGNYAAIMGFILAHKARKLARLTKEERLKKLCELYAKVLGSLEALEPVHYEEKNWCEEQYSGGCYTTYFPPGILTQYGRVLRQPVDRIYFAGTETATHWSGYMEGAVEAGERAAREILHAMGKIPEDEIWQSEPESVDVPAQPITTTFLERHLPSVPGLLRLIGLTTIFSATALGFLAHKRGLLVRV

[3] = target: T1, Amine oxidase [flavin-containing] B
[4] = target: T2, Amine oxidase [flavin-containing] A (Homo sapiens, UniProt P21397)
T2 sequence (P21397 whole entry): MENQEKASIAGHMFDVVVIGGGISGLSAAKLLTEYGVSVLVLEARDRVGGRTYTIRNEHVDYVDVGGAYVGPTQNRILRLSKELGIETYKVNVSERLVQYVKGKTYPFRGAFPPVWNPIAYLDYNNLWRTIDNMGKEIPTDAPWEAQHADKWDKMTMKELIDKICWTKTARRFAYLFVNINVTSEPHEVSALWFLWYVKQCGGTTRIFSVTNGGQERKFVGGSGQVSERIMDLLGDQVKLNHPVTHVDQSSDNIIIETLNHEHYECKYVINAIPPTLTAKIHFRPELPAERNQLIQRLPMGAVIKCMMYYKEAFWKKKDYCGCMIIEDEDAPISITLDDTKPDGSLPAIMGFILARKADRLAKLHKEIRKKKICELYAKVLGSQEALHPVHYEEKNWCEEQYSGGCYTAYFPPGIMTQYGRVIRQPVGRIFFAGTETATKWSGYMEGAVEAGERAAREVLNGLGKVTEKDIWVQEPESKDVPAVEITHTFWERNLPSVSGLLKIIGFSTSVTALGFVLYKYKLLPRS

[5] = target: T2, Amine oxidase [flavin-containing] A; assay: Competitive inhibition of human recombinant MAO-A assessed as inhibitory constant using varying levels of kynuramine as substrate by Lineweaver-burk plot analysis
[6] = target: Cholinesterase (Equus caballus, UniProt P81908)
Description: Inhibition of equine serum BuChE using S-butyrylthiocholine as substrate at by DTNB reagent based spectrophotometric analysis

[7] = target: Acetylcholinesterase (Homo sapiens, UniProt P22303); assay: Inhibition of human recombinant AChE using S-acetylthiocholine as substrate by DTNB reagent based spectrophotometric analysis
Acetylcholinesterase, sequence (P22303 whole entry): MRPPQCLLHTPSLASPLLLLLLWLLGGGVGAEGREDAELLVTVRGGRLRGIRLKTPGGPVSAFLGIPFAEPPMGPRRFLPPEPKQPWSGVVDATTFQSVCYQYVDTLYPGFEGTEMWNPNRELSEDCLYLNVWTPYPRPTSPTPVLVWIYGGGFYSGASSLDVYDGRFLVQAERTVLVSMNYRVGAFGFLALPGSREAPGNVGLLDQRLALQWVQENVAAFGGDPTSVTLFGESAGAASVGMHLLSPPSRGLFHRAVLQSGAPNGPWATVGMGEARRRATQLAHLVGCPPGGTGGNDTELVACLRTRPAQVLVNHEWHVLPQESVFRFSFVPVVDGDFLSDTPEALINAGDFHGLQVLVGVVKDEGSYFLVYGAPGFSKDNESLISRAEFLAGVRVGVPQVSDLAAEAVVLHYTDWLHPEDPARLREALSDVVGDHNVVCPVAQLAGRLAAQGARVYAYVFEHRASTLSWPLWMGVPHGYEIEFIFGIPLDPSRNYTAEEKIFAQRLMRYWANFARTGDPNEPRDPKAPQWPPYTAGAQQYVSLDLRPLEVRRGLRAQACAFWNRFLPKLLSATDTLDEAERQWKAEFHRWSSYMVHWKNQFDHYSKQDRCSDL

Cholinesterase, sequence (P81908 whole entry): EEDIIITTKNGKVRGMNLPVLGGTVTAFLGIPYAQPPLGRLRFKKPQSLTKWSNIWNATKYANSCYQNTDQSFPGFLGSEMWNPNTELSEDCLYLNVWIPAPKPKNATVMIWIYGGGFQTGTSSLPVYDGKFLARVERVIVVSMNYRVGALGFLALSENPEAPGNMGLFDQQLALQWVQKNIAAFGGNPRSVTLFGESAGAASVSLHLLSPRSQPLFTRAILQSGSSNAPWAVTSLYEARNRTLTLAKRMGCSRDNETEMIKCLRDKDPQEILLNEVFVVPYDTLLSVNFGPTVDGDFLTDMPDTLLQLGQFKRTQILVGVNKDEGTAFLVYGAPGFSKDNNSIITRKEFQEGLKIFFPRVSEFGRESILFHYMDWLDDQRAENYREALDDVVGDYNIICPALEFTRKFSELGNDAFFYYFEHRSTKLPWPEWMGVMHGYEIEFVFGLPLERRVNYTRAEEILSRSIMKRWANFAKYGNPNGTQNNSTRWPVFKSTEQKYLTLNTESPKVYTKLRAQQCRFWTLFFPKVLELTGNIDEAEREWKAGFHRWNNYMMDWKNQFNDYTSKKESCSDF
D-amino-acid oxidase, sequence (P00371 whole entry): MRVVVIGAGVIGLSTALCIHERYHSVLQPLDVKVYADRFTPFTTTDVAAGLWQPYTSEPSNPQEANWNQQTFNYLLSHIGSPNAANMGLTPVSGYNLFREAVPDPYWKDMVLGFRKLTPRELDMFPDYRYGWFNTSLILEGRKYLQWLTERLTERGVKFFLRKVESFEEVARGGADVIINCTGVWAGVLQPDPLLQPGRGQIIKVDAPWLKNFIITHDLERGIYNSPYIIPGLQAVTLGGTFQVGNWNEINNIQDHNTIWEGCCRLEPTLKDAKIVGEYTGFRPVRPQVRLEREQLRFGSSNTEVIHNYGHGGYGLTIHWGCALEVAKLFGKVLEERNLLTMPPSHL

SMILES | IC50 [1] [nM] | Ki [2] [nM] | IC50 [3] [nM] | IC50 [4] [nM] | Ki [5] [nM] | IC50 [6] [nM] | IC50 [7] [nM]
Cc1cc(C(=O)O)n[nH]1 | 933 | – | – | – | – | – | –
O=c1[nH]c2ccc(OCc3ccccc3)cc2c(=O)o1 | – | 4.3 | 73 | 132 | 52 | – | –
O=c1[nH]c2ccc(OCc3ccc4ccccc4c3)cc2c(=O)o1 | – | – | 20 | 65 | – | 16600 | –
O=c1[nH]c2ccc(OCc3ccc(Br)cc3)cc2c(=O)o1 | – | – | 6.9 | 9.5 | – | 19800 | –
O=c1[nH]c2ccc(OCc3ccc(F)cc3)cc2c(=O)o1 | – | – | 15 | 122 | – | – | 76200
COc1cccc(COc2ccc3[nH]c(=O)oc(=O)c3c2)c1 | – | – | 18 | 94 | – | – | –
CC(C)c1ccc(COc2ccc3[nH]c(=O)oc(=O)c3c2)cc1 | – | – | 76 | 10 | – | 21100 | 55000
O=c1[nH]c2ccc(OCc3cccc(Br)c3)cc2c(=O)o1 | – | – | 11 | 59 | – | – | –
Cc1ccc(COc2ccc3[nH]c(=O)oc(=O)c3c2)cc1 | – | – | 6.4 | 61 | – | 19100 | –
O=c1[nH]c2ccc(OCc3cccc(I)c3)cc2c(=O)o1 | – | – | 14 | 43 | – | – | –
O=c1[nH]c2ccc(OCc3cccc(C(F)(F)F)c3)cc2c(=O)o1 | – | – | 4.7 | 83 | – | – | –
COc1cc(/C=C/C(=O)CC(=O)/C=C/c2ccc(O)c(OC)c2)ccc1O [CURCUMIN] | 1070 | – | – | – | – | – | –
